Source: BindingDB's records for doi:10.1016/j.bmc.2018.09.008 (Ochanomizu University, 2018)

experiment: Antagonist activity at AR in mouse SC3 cells assessed as inhibition of DHT-induced cell proliferation after 3 days by CCK8 assay

Compound | IC50 [µM]
COc1cccc(C(=O)Nc2ccc(Oc3ccc(O)cc3)cc2C)c1 | 3
COc1cccc(C(=O)Nc2ccc(Oc3cccc(O)c3)cc2)c1 | > 10
COc1ccc(C(=O)Nc2ccc(C)c(Oc3ccc(O)cc3)c2)cc1 | > 10
CN(C)c1ccccc1C(=O)Nc1cccc(Oc2ccc(O)cc2)c1 | 6.3
COc1cccc(C(=O)N(C)c2ccc(Oc3ccc(O)cc3)c(C)c2)c1 | 7.6
CN(C)c1cccc(C(=O)Nc2cccc(Oc3cccc(O)c3)c2)c1 | > 10
COc1ccc(C(=O)Nc2cccc(Oc3cccc(O)c3)c2)cc1 | > 10
COc1cccc(C(=O)Nc2cc(Cl)c(Oc3ccc(O)cc3)c(Cl)c2)c1 | 0.48
COc1cccc(C(=O)Nc2ccc(Oc3ccc(O)cc3)c(F)c2)c1 | 0.4
COc1cccc(C(=O)Nc2ccc(Oc3ccc(O)cc3)c(C(F)(F)F)c2)c1 | 4.3
CN(C)c1ccc(C(=O)Nc2cccc(Oc3ccc(O)cc3)c2)cc1 | 7.4
COc1ccc(C(=O)Nc2cccc(Oc3ccc(O)cc3)c2)cc1 | > 10
COc1ccccc1C(=O)Nc1ccc(C)c(Oc2ccc(O)cc2)c1 | 5.3
CN(C)c1ccc(C(=O)Nc2ccc(Oc3cccc(O)c3)cc2)cc1 | 3.2
COc1ccc(C(=O)Nc2cccc(Oc3ccc(O)cc3)c2C)cc1 | > 10
COc1ccc(C(=O)Nc2cc(Oc3ccc(O)cc3)ccc2C)cc1 | > 10
COc1cccc(C(=O)Nc2ccc(Oc3ccc(O)cc3)cc2OC)c1 | 3.4
COc1cccc(C(=O)Nc2ccc(Oc3ccc(O)cc3)cc2F)c1 | 0.65
COc1cccc(C(=O)Nc2cccc(Oc3cccc(O)c3)c2)c1 | > 10
COc1cccc(C(=O)Nc2cc(F)c(Oc3ccc(O)cc3)c(F)c2)c1 | 0.51
COc1ccccc1C(=O)Nc1cccc(Oc2ccc(O)cc2)c1 | > 10
COc1cccc(C(=O)Nc2ccc(Oc3ccc(O)cc3)c(Br)c2)c1 | 5.7
COc1cccc(C(=O)Nc2ccc(Oc3ccc(O)cc3)cc2Cl)c1 | 1.7
COc1cccc(C(=O)Nc2ccc(Oc3ccc(O)cc3)c(F)c2F)c1 | 0.53
COc1cccc(C(=O)Nc2ccc(Oc3ccc(O)cc3)c(Cl)c2)c1 | 0.48
